Data set [1] concerns white mice. Kind of data set: inhibition of pentamethylenetetrazole-provoked spasm. The data set is classed as in vivo, white mice of both sexes. To be noted: Mus musculus, read-out: ED50 pentamethylenetetrazole. Here is the method:
The inhibiting effect on pentamethylenetetrazoleprovoked spasm was tested on groups each consisting of 12 individually caged, randomized mice, by the method of Orloff (Proc. Soc. Exp. Biol. Med. N.Y., 70, 254 /1949/). The pentamethylenetetrazole spasm threshold was determined by the slow (0.05 ml./10 sec.) intravenous administration of a 0.5 % pentamethylenetetrazole solution, and the influence of the compounds on the spasm threshold was examined. In every case, the tonic extension of the hind limbs was regarded as spasm.

Data set [2] can be described thus: in vivo. The settings on record: mouse, po. The method, then: (§1) The pharmacological properties of the new compounds were tested on white mice of both sexes, weighing 16 to 24 g. The new compounds were administered orally through a metal stomach tube, in the form of a 5 per cent suspension in a medium containing Tween 80 as suspending agent.
The paralyzing effect of the compounds was tested on groups each consisting of 8 mice, by the rotarod test. The ED5o rotarod value corresponds to the dosis, which, one hour after the administration, causes 50 per cent of the test animals to fall down from the rotarod within 3 minutes. The neurotoxic activity was evaluated according to the method of Lichtfield and Wilcoxon.
(§2) For comparison various known and widely used pharmacons, namely phenobarbital (5-ethyl-5-phenylbarbituric acid), phenytoin (5,5-diphenylhydantoine) and trimethadion (3,5,5-trimethyl-2,4-oxazolidine-dione) were also tested under the same conditions.

The nature of data set [3]: acute oral toxicity (LD50) in mice. To be noted: mouse, in vivo. The method, then:
(§3) The LD5o values of the compounds were determined on groups each consisting of 8 mice. The results were evaluated according to the method of Lichtfield and Wilcoxon (J. Pharmacol. exp. Therap. 96, 99 / 1949/).

Data set [4] deals with white mice. The data set is described as follows: Maximum Electroshock Seizure Test (electroshock-inhibiting effect). The data set is classed as in vivo, white mice of both sexes. The settings on record: for Protective Index: ED50 rotarod divided by ED50 ES; for ED50: Mus musculus, read-out: ED50 ES. The method, then: as §1
The electroshock-inhibiting effect of the compounds was examined on groups each consisting of 10, individually caged mice. The anticonvulsive activity was tested by the "Maximum Electroshock Seizure Test" of Swinyard, et al. (Epilepsia 10, 107 /1969/), and the inhibition of the tonic extension of the hind limbs was evaluated. […] The results were evaluated according to the method of Lichtfield and Wilcoxon. The electroshock was provoked using corneal electrodes, under the following parameters: 50 Hz, 0.3 sec. 3 msec; the current intensity varied between 28 and 34 mA (a current intensity was maintained that was sufficient to provoke spasm in each of the 10 animals).
The activities of the compounds with protecting effect against electroshock were compared by the so-called protective index, which was calculated by dividing the individual ED5o rotarod values with the corresponding ED5o ES values. The greater this ratio, the more remote the dosis protecting against electroshock is from the dosis causing muscle relaxation.
as §2

Data set [5] relates to white mice. Kind of data set: acute oral toxicity (LD50) in mice. To be noted: mouse, in vivo, po. Here is the method:
as §3

Where [6] appears, read: oral, mice, 3 h., 0.5 % pentamethylenetetrazole slow i.v., tonic extension of the hind limbs regarded as spasm.
Setting [7] is: oral, mice, 3 h., inhibition of tonic extension of the hind limbs, protection of 50 % of animals.

Structures are written as SMILES. Where a name gives a salt, the structure may show the parent alone. Read-outs that look alike come from different tables or passages of the source.

One may read the ED50 as the dose at which the effect has come halfway, by size or by number of responders. As usually defined, the LD50 is the dose expected to kill half of the subjects tested. `CN1C(=O)OC(C)(C)C1=O` [3,5,5-trimethyl-2,4-oxazolidine-dione, reference compound]: the figures for the ED50 in data set [1] (setting [6]) and in data set [4] (setting [7]) were 62 mg/kg and 440 mg/kg, respectively. The same molecule registered a TD50 in data set [2] of 340 mg/kg. For the same molecule, the LD50 in data set [3] (oral, mice, read-out: LD50) was determined as 1750 mg/kg. In data set [4], the “Protective Index” value was determined as 0.77.

Regarding `O=C1NC(=O)C(c2ccccc2)(c2ccccc2)N1` [5,5-diphenyl-hidantoine, 5,5-diphenylhydantoine, reference compound], the ED50 in data set [1] (setting [6]) was found to be 25 mg/kg; in data set [4] (setting [7]) it was 10 mg/kg. For the same molecule, the TD50 in data set [2] is 10 mg/kg. The LD50 in data set [3] (oral, mice, read-out: LD50) came to 300 mg/kg. The “Protective Index” value in data set [4] stood at 1.0.

As for `CCC1(c2ccccc2)C(=O)NC(=O)NC1=O` [5-ethyl-5-phenyl-barbituric acid, 5-ethyl-5-phenylbarbituric acid, reference compound], the ED50 in data set [1] (po, 3 h) was 15 mg/kg; in data set [4] (po, 3 h), 15 mg/kg. The same molecule showed a TD50 in data set [2] (in vivo) of 38 mg/kg. Besides, in data set [3] (oral, mice, read-out: LD50), the LD50 stood at 180 mg/kg. In addition, the “Protective Index” value in data set [4] is 2.5.

As to `CCCNCC(=O)Nc1ccc(C2NC(=O)Cc3ccccc32)cc1` (centres unmarked) [Example 5, 1,4-Dihydro-1-(4'-/propylaminoacetyl/-amino-phenyl)-3(2H)-isoquinolinone], the results for the ED50 in data set [1] (setting [6]) and in data set [4] (setting [7]) were 50 mg/kg and 21 mg/kg, respectively. This molecule also displayed a TD50 in data set [2] of 490 mg/kg. In data set [3] (po), this molecule yielded an LD50 of approximately 2000 mg/kg. Moreover, the “Protective Index” value in data set [4] was determined as 24.

As to `CCCNCC(=O)Nc1ccc(C2NC(=O)C(C)(C)c3ccccc32)cc1` (centres unmarked) [Example 6, 1,4-Dihydro-4,4-dimethyl-1-(4'-/propylaminoacetyl/-amino-phenyl)3-(2H)-isoquinolinone], the ED50 came out at 100 mg/kg in data set [1] (setting [6]) and 32 mg/kg in data set [4] (setting [7]). In data set [2], this molecule registered a TD50 of 435 mg/kg. Moreover, the LD50 in data set [3] (po) was found to be 1600 mg/kg. Also, the “Protective Index” value in data set [4] is listed as 13.6.

Turning to `CCCNCC(=O)Nc1ccc(C2NC(=O)C(C)c3ccccc32)cc1` (centres unmarked) [Example 7, 1,4-Dihydro-4-methyl-1-(4'-/propylaminoacetyl/-aminophenyl)-3(2H)-isoquinolinone], the ED50 in data set [1] (setting [6]) was found to be 50 mg/kg; in data set [4] (setting [7]), 22 mg/kg. This molecule yielded a TD50 in data set [2] of 340 mg/kg. In addition, the LD50 in data set [5] was more than 1600 mg/kg. Moreover, the “Protective Index” value in data set [4] was 15.4.

As for `CCCNCC(=O)Nc1ccc(C2NC(=O)C(C(C)C)c3ccccc32)cc1` (centres unmarked) [Example 8, 1,4-Dihydro-4-isopropyl-1-(4'-/propylaminoacetyl/-amino-phenyl)-3(2H)-isoquinolinone], the ED50 is 50 mg/kg in data set [1] (setting [6]) and approximately 20 mg/kg in data set [4] (setting [7]). Moreover, the TD50 in data set [2] was approximately 50 mg/kg. Also, in data set [3] (po), the LD50 lay in the range of 600 to 800 mg/kg. In addition, the “Protective Index” value in data set [4] was approximately 2.5.

As for `CCNCC(=O)Nc1ccc(C2NC(=O)Cc3ccccc32)cc1` (centres unmarked) [Example 9, 1,4-Dihydro-1-(4'-/ethylaminoacetyl/-amino-phenyl)-3(2H)-isoquinolinone], the ED50 in data set [1] (setting [6]) amounted to 50 mg/kg; in data set [4] (setting [7]) it was 10.2 mg/kg. Moreover, in data set [2], the TD50 was 520 mg/kg. Further, the LD50 in data set [5] is more than 1600 mg/kg. The “Protective Index” value in data set [4] worked out at 51.

For `CCNCC(=O)Nc1ccc(C2NC(=O)C(C)(C)c3ccccc32)cc1` (centres unmarked) [Example 10, 1,4-Dihydro-1-(4'-/ethylaminoacetyl/-amino-phenyl)-4,4-dimethyl-3(2H)-isoquinolinone], the ED50 in data set [1] (setting [6]) is 50 mg/kg; in data set [4] (setting [7]) it was more than 300 mg/kg. In data set [2], this molecule displayed a TD50 of 760 mg/kg. For the same molecule, the LD50 in data set [5] was more than 2000 mg/kg. In addition, the “Protective Index” value in data set [4] is recorded as approximately 2.

`CNCC(=O)Nc1ccc(C2NC(=O)Cc3ccccc32)cc1` (centres unmarked) [Example 11, 1,4-Dihdryo-1-(4'-/methylaminoacetyl/-amino-phenyl)-3(2H)-isoquinolinone]: the ED50 in data set [1] (setting [6]) was determined as 50 mg/kg; in data set [4] (setting [7]) it was 22 mg/kg. For the same molecule, the TD50 in data set [2] was 270 mg/kg. Further, the LD50 in data set [3] (po) is approximately 600 mg/kg. The “Protective Index” value in data set [4] was approximately 12.

As for `CC(C)NCC(=O)Nc1ccc(C2NC(=O)Cc3ccccc32)cc1` (centres unmarked) [Example 12, 1,4-Dihydro-1-(4'-/isopropylaminoacetyl/-aminophenyl)-3(2H)-isoquinolinone], the 50% effective dose (ED50) stood at 100 mg/kg in data set [1] (setting [6]) and 10.5 mg/kg in data set [4] (setting [7]). Besides, the TD50 in data set [2] turned out to be 270 mg/kg. This molecule also had an LD50 in data set [5] of more than 1000 mg/kg. Moreover, the “Protective Index” value in data set [4] stood at 26.

In data set [2], `CNCC(=O)Nc1ccc(C2NC(=O)C(C)(C)c3ccccc32)cc1` (centres unmarked) [Example 13, 1,4-Dihydro-4,4-dimethyl-1-(4'-/methylaminoacetyl/-amino-phenyl)-3(2H)-isoquinolinone maleate] came in with a TD50 of approximately 800 mg/kg. In addition, the LD50 in data set [5] is more than 2000 mg/kg. Further, the “Protective Index” value in data set [4] was approximately 32. Moreover, the ED50 in data set [4] (setting [7]) turned out to be 25 mg/kg.

For the molecule `CC(C)NCC(=O)Nc1ccc(C2NC(=O)C(C)(C)c3ccccc32)cc1` (centres unmarked) [Example 14, 1,4-Dihydro-4,4-dimethyl-1-(4'-/isopropylaminoacetyl/-amino-phenyl)-3(2H)-isoqinolinone], in data set [2], the TD50 is approximately 1600 mg/kg. Besides, the LD50 in data set [5] is more than 2000 mg/kg. In data set [4], the “Protective Index” value is recorded as approximately 59. Further, in data set [4] (setting [7]), the ED50 came out at 27 mg/kg.

As to `CCCCNCC(=O)Nc1ccc(C2NC(=O)C(C)(C)c3ccccc32)cc1` (centres unmarked) [Example 15, 1,4-Dihydro-1-(4'-/butylaminoacetyl/-amino-phenyl)-4,4-dimethyl-3(2H)-isoquinolinone], in data set [2], the TD50 is approximately 300 mg/kg. In addition, in data set [3] (po), the LD50 was more than 1000 mg/kg. For the same molecule, the “Protective Index” value in data set [4] is on record as approximately 10. Besides, the ED50 in data set [4] (setting [7]) is 29 mg/kg.

In turn, `CCN(CC)CC(=O)Nc1ccc(C2NC(=O)C(C)(C)c3ccccc32)cc1` (centres unmarked) [Example 16, 1,4-Dihydro-1-(4'-/N,N-diethylaminoacetyl/-amino-phenyl)-4,4-dimethyl-3(2H)-isoquinolinone] returned a TD50 in data set [2] of approximately 1300 mg/kg. For the same molecule, in data set [3] (po), the LD50 is approximately 1600 mg/kg. Besides, the “Protective Index” value in data set [4] was approximately 15. In addition, the ED50 in data set [4] (setting [7]) is approximately 88 mg/kg.

The values above are taken from patent US3946018A, “1,4-Dihydro-3 (2H)-isoquinolinone derivatives” (priority 1973, dated 1976).
